Results taken from PubChem BioAssay (NCI).
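Dose response: 5 concentrations. Exposure: 48 h. Format: 96-well plates. Endpoint: linear interpolation; highest concentration if not reached. TGI: total growth inhibition.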

Legend:
Test in all cases: growth of human tumour cells (NCI), 48 h
TK-10 renal = tested on: TK-10 renal
SF-539 CNS = tested on: SF-539 CNS
HCT-116 colon = tested on: HCT-116 colon
OVCAR-4 ovarian = tested on: OVCAR-4 ovarian
HOP-62 NSCLC = tested on: HOP-62 NSCLC
HCT-15 colon = tested on: HCT-15 colon
RPMI-8226 leukemia = tested on: RPMI-8226 leukemia
HS 578T breast = tested on: HS 578T breast
UACC-257 melanoma = tested on: UACC-257 melanoma
OVCAR-3 ovarian = tested on: OVCAR-3 ovarian
SNB-75 CNS = tested on: SNB-75 CNS
SR leukemia = tested on: SR leukemia
EKVX NSCLC = tested on: EKVX NSCLC
ACHN renal = tested on: ACHN renal
MALME-3M melanoma = tested on: MALME-3M melanoma
HT29 colon = tested on: HT29 colon
NCI/ADR-RES ovarian = tested on: NCI/ADR-RES ovarian
NCI-H460 lung = tested on: NCI-H460 lung
SK-MEL-2 melanoma = tested on: SK-MEL-2 melanoma
SK-MEL-5 melanoma = tested on: SK-MEL-5 melanoma

| SMILES | TGI (TK-10 renal) [µM] | TGI (SF-539 CNS) [µM] | TGI (HCT-116 colon) [µM] | TGI (OVCAR-4 ovarian) [µM] | TGI (HOP-62 NSCLC) [µM] | TGI (HCT-15 colon) [µM] | TGI (RPMI-8226 leukemia) [µM] | TGI (HS 578T breast) [µM] | TGI (UACC-257 melanoma) [µM] | TGI (OVCAR-3 ovarian) [µM] | TGI (SNB-75 CNS) [µM] | TGI (SR leukemia) [µM] | TGI (EKVX NSCLC) [µM] | TGI (ACHN renal) [µM] | TGI (MALME-3M melanoma) [µM] | TGI (HT29 colon) [µM] | TGI (NCI/ADR-RES ovarian) [µM] | TGI (NCI-H460 lung) [µM] | TGI (SK-MEL-2 melanoma) [µM] | TGI (SK-MEL-5 melanoma) [µM] |
| --- | --- | --- | --- | --- | --- | --- | --- | --- | --- | --- | --- | --- | --- | --- | --- | --- | --- | --- | --- | --- |
| COC(=O)N/N=C(/c1nc2ccc([N+](=O)[O-])cc2[nH]c1=O)C(O)c1ccc(OC)c(OC)c1 (stereo not given) | > 100 | > 100 | > 100 | > 100 | > 100 | > 78.4 | > 74.5 | > 100 | > 100 | > 100 | > 100 | 39 | > 100 | > 100 | > 100 | > 100 | > 100 | > 100 | > 100 | > 78.7 |
| O=c1c2ccccc2nc2sc(/N=C/C=C/c3ccccc3)nn12 | > 100 | > 100 | > 100 | > 100 | > 100 | > 100 | > 100 | > 100 | > 100 | > 100 | > 100 | > 100 | > 100 | > 100 | > 100 | > 100 | > 100 | > 100 | > 100 | > 100 |
| O=C(c1ccccc1)N1CCC(Nc2nccs2)O1 (stereo not given) | > 10 | > 10 | > 10 | > 10 | > 10 | > 10 | > 10 | > 10 | > 10 | > 10 | > 10 | > 10 | > 10 | > 10 | > 10 | > 10 | > 10 | > 10 | > 10 | > 10 |
| N#CCC1(c2ccc(Cl)cc2)NC(=O)c2ccccc21 (stereo not given) | > 100 | > 100 | > 100 | > 100 | > 100 | > 100 | > 100 | > 100 | > 100 | > 100 | > 100 | > 100 | > 100 | > 100 | > 100 | > 100 | > 100 | > 100 | > 100 | > 100 |
| O=C1CSC(c2ccccc2O)N1c1nc2cc3sc(N4C(=O)CSC4c4ccccc4O)nc3cc2s1 (stereo not given) | > 100 | > 100 | > 100 | > 100 | > 100 | > 100 | > 100 | > 100 | > 77.5 | > 100 | > 100 | > 100 | > 100 | > 100 | > 100 | > 100 | > 100 | > 33.6 | > 100 | > 100 |
| COc1ccc(C(=C2C(=O)N(c3ccccc3)C(=O)C2=C(C)C)c2ccc(OC)cc2)cc1 | > 47.5 | > 24.2 | > 51.1 | > 29.3 | > 66.2 | > 32.5 | > 43.7 | > 39 | > 47.5 | > 100 | > 43.6 | > 100 | > 24.4 | > 31.7 | > 100 | 20.2 | > 100 | > 100 | > 42.3 | > 51.4 |
| CCn1c(O)c(C=Nc2ccccc2)s/c1=N/Nc1nc(-c2ccc(O)c(O)c2)cs1 | > 100 | 4.76 | > 100 | > 100 | > 100 | > 100 | 46.6 | > 100 | > 100 | 49 | > 100 | 15.9 | > 100 | > 100 | > 100 | > 100 | > 100 | > 100 | > 100 | > 100 |
| C=C1CC(C)(COc2ccc3c(C)cc(=O)oc3c2)OC1=O (stereo not given) | 4.06 | 4.59 | 4.72 | 9.06 | 28.4 | 4.23 | 2.57 | 31.9 | 4.35 | 11 | 16.3 | 4.33 | 17.8 | 7.37 | 6.75 | 4.5 | 17.6 | 20.8 | 5.18 | 3.37 |
| CC(C)NC(=O)OCc1c(COC(=O)NC(C)C)c(-c2cc[n+](COC(=O)C(C)C)cc2)n2c1CCC2 | > 100 | > 100 | > 100 | > 100 | > 100 | > 100 | > 100 | > 100 | > 100 | > 100 | > 100 | > 63.3 | > 100 | > 82.7 | > 100 | > 100 | > 100 | > 100 | > 100 | > 100 |
